Data from ChEMBL document CHEMBL2021806, “GnRH-III based multifunctional drug delivery systems containing daunorubicin and methotrexate” (Eur J Med Chem, 2012).
The source made the active and inactive calls. The calls are words filed in the database; no cut-off is given here.

Assays:
MONO-MAC-6 [1] = experiment: Antiproliferative activity against human MONO-MAC-6 cells assessed as inhibition of cell viability at 10^-9 M after 24 hrs by cell counting method; format: functional; settings: MONO-MAC-6, 24 h, values are per cent of control
LNCaP = experiment: Cytostatic activity against human LNCAP cells after 4 days by MTT assay; format: functional, cell-based; settings: 96 h
HT-29 = experiment: Cytostatic activity against human HT-29 cells after 4 days by MTT assay; format: functional, cell-based; settings: HT-29, 96 h
MONO-MAC-6 [2] = experiment: Antiproliferative activity against human MONO-MAC-6 cells assessed as inhibition of cell viability at 10^-9 M after 48 hrs by cell counting method; format: functional; settings: MONO-MAC-6, 48 h, values are per cent of control
MONO-MAC-6 [3] = experiment: Antiproliferative activity against human MONO-MAC-6 cells assessed as inhibition of cell viability at 10^-9 M after 72 hrs by cell counting method; format: functional; settings: MONO-MAC-6, 72 h, values are per cent of control
MONO-MAC-6 [4] = experiment: Antiproliferative activity against human MONO-MAC-6 cells assessed as inhibition of cell viability at 10^-8 M after 24 hrs by cell counting method; format: functional; settings: MONO-MAC-6, 24 h, values are per cent of control
MONO-MAC-6 [5] = experiment: Antiproliferative activity against human MONO-MAC-6 cells assessed as inhibition of cell viability at 10^-8 M after 48 hrs by cell counting method; format: functional; settings: MONO-MAC-6, 48 h, values are per cent of control
MONO-MAC-6 [6] = experiment: Antiproliferative activity against human MONO-MAC-6 cells assessed as inhibition of cell viability at 10^-8 M after 72 hrs by cell counting method; format: functional; settings: MONO-MAC-6, 72 h, values are per cent of control
MONO-MAC-6 [7] = experiment: Antiproliferative activity against human MONO-MAC-6 cells assessed as inhibition of cell viability at 10^-7 M after 24 hrs by cell counting method; format: functional; settings: MONO-MAC-6, 24 h, values are per cent of control
MONO-MAC-6 [8] = experiment: Antiproliferative activity against human MONO-MAC-6 cells assessed as inhibition of cell viability at 10^-7 M after 48 hrs by cell counting method; format: functional; settings: MONO-MAC-6, 48 h, values are per cent of control
MONO-MAC-6 [9] = experiment: Antiproliferative activity against human MONO-MAC-6 cells assessed as inhibition of cell viability at 10^-7 M after 72 hrs by cell counting method; format: functional; settings: MONO-MAC-6, 72 h, values are per cent of control
MONO-MAC-6 [10] = experiment: Antiproliferative activity against human MONO-MAC-6 cells assessed as inhibition of cell viability at 10^-6 M after 24 hrs by cell counting method; format: functional; settings: MONO-MAC-6, 24 h, values are per cent of control
MONO-MAC-6 [11] = experiment: Antiproliferative activity against human MONO-MAC-6 cells assessed as inhibition of cell viability at 10^-6 M after 48 hrs by cell counting method; format: functional; settings: MONO-MAC-6, 48 h, values are per cent of control
MONO-MAC-6 [12] = experiment: Antiproliferative activity against human MONO-MAC-6 cells assessed as inhibition of cell viability at 10^-6 M after 72 hrs by cell counting method; format: functional; settings: MONO-MAC-6, 72 h, values are per cent of control
MONO-MAC-6 [13] = experiment: Antiproliferative activity against human MONO-MAC-6 cells assessed as cell viability at 10^-6 M after 24 hrs by cell counting method relative to untreated control; format: functional
MONO-MAC-6 [14] = experiment: Antiproliferative activity against human MONO-MAC-6 cells assessed as cell viability at 10^-7 to 10^-6 M after 48 hrs by cell counting method relative to untreated control; format: functional
MONO-MAC-6 [15] = experiment: Antiproliferative activity against human MONO-MAC-6 cells assessed as cell viability at 10^-6 M after 72 hrs by cell counting method relative to untreated control; format: functional
MONO-MAC-6 [16] = experiment: Antiproliferative activity against human MONO-MAC-6 cells assessed as cell viability at 10^-7 to 10^-6 M after 72 hrs by cell counting method relative to untreated control; format: functional
MONO-MAC-6 [17] = experiment: Induction of adhesion in human MONO-MAC-6 cells at 10^-9 to 10^-6 M after 24 hrs by electrical impedence method relative to control; format: functional
MONO-MAC-6 [18] = experiment: Induction of adhesion in human MONO-MAC-6 cells at 10^-11 to 10^-12 M after 24 hrs by electrical impedence method relative to control; format: functional, cell-based
MONO-MAC-6 [19] = experiment: Antiproliferative activity against human MONO-MAC-6 cells assessed as cell viability at 10^-6 M after 48 hrs by cell counting method relative to untreated control; format: functional
MCF7 = experiment: Cytostatic activity against human MCF7 cells after 4 days by MTT assay; format: functional, cell-based; settings: MCF7, 96 h
MONO-MAC-6 [20] = experiment: Induction of adhesion in human MONO-MAC-6 cells at 10^-9 M after 24 hrs by electrical impedence method relative to control; format: functional
MONO-MAC-6 [21] = experiment: Induction of adhesion in human MONO-MAC-6 cells at 10^-7 to 10^-6 M after 24 hrs by electrical impedence method relative to control; format: functional, cell-based
Serum [22] = experiment: Metabolic stability in human serum at 10 uM after 24 hrs by LC-MS analysis; format: ADME, cell-free
[23] = Drug metabolism in rat lysosomal homogenate assessed as H-Lys(MTX)HDWK(Dau=Aoa)P-OH formation at 0.1 ug/ul after 24 hrs by LC-MS analysis; format: ADME, tissue-based, Lysosome; settings: tissue homogenate
MONO-MAC-6 [24] = experiment: Induction of adhesion in human MONO-MAC-6 cells after 24 hrs by electrical impedence method; format: functional, cell-based
[25] = Drug metabolism in rat lysosomal homogenate assessed as H-Lys(Dau=Aoa)-OH formation at 0.1 ug/ul after 24 hrs by LC-MS analysis; format: ADME, tissue-based, Lysosome; settings: tissue homogenate
Serum [26] = experiment: Metabolic stability in human serum at 10 uM after 24 hrs by RP-HPLC analysis; format: ADME, cell-free
[27] = Drug metabolism in rat lysosomal homogenate assessed as large peptide fragment EHWK(MTX)HDWK(Ac)-OH formation at 0.1 ug/ul after 24 hrs by LC-MS analysis; format: ADME, tissue-based, Lysosome; settings: tissue homogenate
MONO-MAC-6 [28] = experiment: Antiproliferative activity against human MONO-MAC-6 cells assessed as cell viability at 10^-7 M after 24 hrs by cell counting method relative to untreated control; format: functional
MONO-MAC-6 [29] = experiment: Antiproliferative activity against human MONO-MAC-6 cells assessed as cell viability at 10^-9 to 10^-6 M after 48 hrs by cell counting method relative to untreated control; format: functional
MONO-MAC-6 [30] = experiment: Antiproliferative activity against human MONO-MAC-6 cells assessed as cell viability at 10^-9 to 10^-6 M after 72 hrs by cell counting method relative to untreated control; format: functional
MONO-MAC-6 [31] = experiment: Induction of adhesion in human MONO-MAC-6 cells at 10^-8 to 10^-6 M after 24 hrs by electrical impedence method relative to control; format: functional
MONO-MAC-6 [32] = experiment: Induction of adhesion in human MONO-MAC-6 cells at 10^-7 M after 1.5 hrs by electrical impedence method relative to control; format: functional
[33] = Antitumor activity against mouse C26 cells allografted in Balb/C mouse assessed as tumor growth inhibition; format: functional

IC50 (LNCaP) [µM]	IC50 (HT-29) [µM]	IC50 (MCF7) [µM]	Stability (Serum [22])	Compound	viability, % of control at 0.001 µM (MONO-MAC-6 [1]) [%]	viability, % of control at 0.001 µM (MONO-MAC-6 [2]) [%]	viability, % of control at 0.001 µM (MONO-MAC-6 [3]) [%]	viability, % of control at 0.01 µM (MONO-MAC-6 [4]) [%]	viability, % of control at 0.01 µM (MONO-MAC-6 [5]) [%]	viability, % of control at 0.01 µM (MONO-MAC-6 [6]) [%]	viability, % of control at 0.1 µM (MONO-MAC-6 [7]) [%]	viability, % of control at 0.1 µM (MONO-MAC-6 [8]) [%]	viability, % of control at 0.1 µM (MONO-MAC-6 [9]) [%]	viability, % of control at 1 µM (MONO-MAC-6 [10]) [%]	viability, % of control at 1 µM (MONO-MAC-6 [11]) [%]	viability, % of control at 1 µM (MONO-MAC-6 [12]) [%]	Ratio (MONO-MAC-6 [13])	Ratio (MONO-MAC-6 [15])	Ratio (MONO-MAC-6 [19])	Activity (MONO-MAC-6 [20]) [%]	further results
0.3	1.4	–	–	CN(Cc1cnc2nc(N)nc(N)c2n1)c1ccc(C(=O)N[C@@H](CCC(=O)O)C(=O)O)cc1 [METHOTREXATE]	101	97	96	102	94	60	89	52	27	80	52	29	0.95	0.77	–	–	Ratio (MONO-MAC-6 [14]): 0.98; Ratio (MONO-MAC-6 [16]): 0.76; Activity (MONO-MAC-6 [17]): 140%; Activity (MONO-MAC-6 [18]): Active
11.3	5.6	5.4	Stable	COc1cccc2c1C(=O)c1c(O)c3c(c(O)c1C2=O)C[C@@](O)(/C(C)=N/OCC(=O)NCCCC[C@H](NC(=O)[C@H](CCC(=O)O)NC(=O)c1ccc(N(C)Cc2cnc4nc(N)nc(N)c4n2)cc1)C(=O)NCCCC[C@H](NC(=O)[C@H](Cc1c[nH]c2ccccc12)NC(=O)[C@H](CC(=O)O)NC(=O)[C@H](Cc1cnc[nH]1)NC(=O)[C@H](CO)NC(=O)[C@H](Cc1c[nH]c2ccccc12)NC(=O)[C@H](Cc1cnc[nH]1)NC(=O)[C@@H]1CCC(=O)N1)C(=O)N1CCC[C@H]1C(=O)NCC(N)=O)C[C@@H]3O[C@H]1C[C@H](N)[C@H](O)[C@H](C)O1	116	93	99	128	91	97	105	97	94	82	63	38	1	0.77	0.9	77.6	Activity (MONO-MAC-6 [21]): inactive; Drug metabolism [23]: Active
28.8	3.6	5.8	Stable	COc1cccc2c1C(=O)c1c(O)c3c(c(O)c1C2=O)C[C@@](O)(/C(C)=N/OCC(=O)NCCCC[C@H](NC(=O)[C@H](Cc1c[nH]c2ccccc12)NC(=O)[C@H](CC(=O)O)NC(=O)[C@H](Cc1cnc[nH]1)NC(=O)[C@H](CCCCNC(=O)[C@H](CCC(=O)O)NC(=O)c1ccc(N(C)Cc2cnc4nc(N)nc(N)c4n2)cc1)NC(=O)[C@H](Cc1c[nH]c2ccccc12)NC(=O)[C@H](Cc1cnc[nH]1)NC(=O)[C@@H]1CCC(=O)N1)C(=O)N1CCC[C@H]1C(=O)NCC(N)=O)C[C@@H]3O[C@H]1C[C@H](N)[C@H](O)[C@H](C)O1	108	89	81	103	92	103	98	94	104	88	86	76	1.06	0.95	0.98	135	Activity (MONO-MAC-6 [24]): Dose-dependent effect; Drug metabolism [25]: Active
> 50	> 50	> 50	–	CC(=O)NCCCC[C@H](NC(=O)[C@H](Cc1c[nH]c2ccccc12)NC(=O)[C@H](CC(=O)O)NC(=O)[C@H](Cc1cnc[nH]1)NC(=O)[C@H](CCCCNC(=O)[C@H](CCC(=O)O)NC(=O)c1ccc(N(C)Cc2cnc3nc(N)nc(N)c3n2)cc1)NC(=O)[C@H](Cc1c[nH]c2ccccc12)NC(=O)[C@H](Cc1cnc[nH]1)NC(=O)[C@@H]1CCC(=O)N1)C(=O)N1CCC[C@H]1C(=O)NCC(N)=O	–	–	–	–	–	–	–	–	–	–	–	–	–	–	–	–	Stability (Serum [26]): Stable; Drug metabolism [27]: Active
0.1	0.2	0.4	–	COc1cccc2c1C(=O)c1c(O)c3c(c(O)c1C2=O)C[C@@](O)(C(C)=O)C[C@@H]3O[C@H]1C[C@H](N)[C@H](O)[C@H](C)O1 [DAUNORUBICIN]	97	36	21	95	35	17	59	26	14	46	27	16	–	–	–	–	Ratio (MONO-MAC-6 [28]): 0.85; Ratio (MONO-MAC-6 [29]): 0.45; Ratio (MONO-MAC-6 [30]): 0.49; Activity (MONO-MAC-6 [31]): 121%; Activity (MONO-MAC-6 [32]): 142%; growth inhibition (GI) [33]: 24.4%
